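In this assay, cells in 96-well plates receive the compound at five concentrations for 48 hours. Endpoints are linearly interpolated between the surrounding concentrations. GI50 = concentration required for 50% inhibition of growth.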 The source made the active and inactive calls. No stated cut-off is given here; in the data, active = GI50 up to about 1.1 µM and inactive = higher.
Key:
Experiment in all cases: DTP human tumour cell line panel, 48 h
A498 = system: A498
ACHN = system: ACHN
CCRF-CEM = system: CCRF-CEM
HOP-62 = system: HOP-62
HOP-92 = system: HOP-92
IGROV-1 = system: IGROV-1
KM12 = system: KM12
M14 = system: M14
NCI-H23 = system: NCI-H23
OVCAR-8 = system: OVCAR-8
RXF 393 = system: RXF 393
SF-295 = system: SF-295
SK-MEL-28 = system: SK-MEL-28
SK-MEL-2 = system: SK-MEL-2
SNB-75 = system: SNB-75
SW-620 = system: SW-620
TK-10 = system: TK-10
U-251 = system: U-251
UACC-62 = system: UACC-62
HCT-116 = system: HCT-116

Measured: GI50

O=C1NC2OCC(O)C(O1)C2O (centres undefined)
inactive: A498 > 100 µM | ACHN > 100 µM | CCRF-CEM > 100 µM | HOP-62 > 100 µM | HOP-92 > 100 µM | IGROV-1 > 100 µM | KM12 > 100 µM | M14 > 100 µM | NCI-H23 > 100 µM | OVCAR-8 > 100 µM | RXF 393 > 100 µM | SF-295 > 100 µM | SK-MEL-28 > 100 µM | SK-MEL-2 > 100 µM | SNB-75 > 100 µM | SW-620 > 100 µM | TK-10 > 100 µM | U-251 > 100 µM | UACC-62 > 100 µM

Cc1nc2ccc(S(=O)(=O)Nc3nccs3)cc2c(=O)n1NS(=O)(=O)c1nccs1
inactive: A498 > 100 µM | ACHN 32 µM | CCRF-CEM 86.7 µM | HOP-62 > 100 µM | HOP-92 > 100 µM | IGROV-1 > 100 µM | KM12 64.9 µM | M14 > 100 µM | NCI-H23 > 100 µM | OVCAR-8 > 100 µM | RXF 393 > 100 µM | SF-295 58.7 µM | SK-MEL-28 > 100 µM | SK-MEL-2 > 100 µM | SNB-75 > 100 µM | SW-620 78.3 µM | TK-10 > 100 µM | U-251 > 100 µM | UACC-62 72.9 µM

S=P1(N2CCCCC2)Oc2ccc3ccccc3c2-c2c(ccc3ccccc23)O1
inactive: A498 > 35.2 µM | CCRF-CEM > 31.6 µM | HCT-116 > 82.2 µM | HOP-62 > 100 µM | HOP-92 92.9 µM | IGROV-1 > 100 µM | KM12 > 100 µM | NCI-H23 > 81.1 µM | OVCAR-8 64.4 µM | RXF 393 > 89.7 µM | SF-295 53.7 µM | SK-MEL-28 > 100 µM | SK-MEL-2 31.6 µM | SNB-75 31.8 µM | SW-620 > 100 µM | U-251 > 65.2 µM | UACC-62 94.8 µM

CC(C(=O)NCCNC(=O)CCC(=O)N(C)O)C(=O)NCCNC(=O)CCC(=O)N(C)O
inactive: A498 > 100 µM | ACHN > 100 µM | CCRF-CEM > 100 µM | HOP-62 > 100 µM | HOP-92 > 100 µM | IGROV-1 > 100 µM | KM12 > 100 µM | M14 > 100 µM | NCI-H23 > 100 µM | OVCAR-8 > 100 µM | RXF 393 > 100 µM | SF-295 > 100 µM | SK-MEL-28 5.71 µM | SK-MEL-2 > 100 µM | SNB-75 > 100 µM | SW-620 > 100 µM | TK-10 > 100 µM | U-251 > 100 µM | UACC-62 > 100 µM

O=C(O)CNS(=O)(=O)c1ccc(NC(=O)c2ccc(F)cc2)cc1
inactive: A498 > 100 µM | ACHN > 100 µM | CCRF-CEM > 100 µM | HOP-92 > 100 µM | IGROV-1 > 100 µM | KM12 > 100 µM | M14 > 100 µM | NCI-H23 > 100 µM | OVCAR-8 > 100 µM | RXF 393 83 µM | SF-295 > 100 µM | SK-MEL-28 > 100 µM | SK-MEL-2 > 100 µM | SNB-75 > 100 µM | SW-620 > 100 µM | TK-10 > 100 µM | U-251 > 100 µM | UACC-62 > 100 µM

C(=C/c1nc2ccccc2o1)/c1ccc2c(c1)OCO2
inactive: A498 21.8 µM | CCRF-CEM > 67.9 µM | HCT-116 12.3 µM | HOP-62 16.2 µM | HOP-92 13.2 µM | IGROV-1 16.1 µM | KM12 4.91 µM | NCI-H23 22.9 µM | OVCAR-8 29.7 µM | RXF 393 14.7 µM | SF-295 8.04 µM | SK-MEL-28 24.9 µM | SK-MEL-2 8.34 µM | SNB-75 21.1 µM | SW-620 16.7 µM | U-251 17.5 µM | UACC-62 2.62 µM

— ChEMBL document CHEMBL1201862, “PubChem BioAssay data set” (2004)
